Data reported in US11896592B2, “Certain triazolopyridines and triazolopyrazines, compositions thereof and methods of use therefor” (Hutchison Medipharma Limited, priority 2009, dated 2024).

Each compound was assayed against T1, Recombinant human Met (c-Met) (Homo sapiens, UniProt P08581) (assay: Inhibition of c-Met kinase activity using Transcreener FP assay). Conditions: IC50, inhibition of c-Met kinase activity, Poly E4Y substrate, 28° C. 45 min.
T1 construct: purchased Invitrogen PV3143
Format: biochemical

T1 sequence (P08581 956-1390 limits assumed): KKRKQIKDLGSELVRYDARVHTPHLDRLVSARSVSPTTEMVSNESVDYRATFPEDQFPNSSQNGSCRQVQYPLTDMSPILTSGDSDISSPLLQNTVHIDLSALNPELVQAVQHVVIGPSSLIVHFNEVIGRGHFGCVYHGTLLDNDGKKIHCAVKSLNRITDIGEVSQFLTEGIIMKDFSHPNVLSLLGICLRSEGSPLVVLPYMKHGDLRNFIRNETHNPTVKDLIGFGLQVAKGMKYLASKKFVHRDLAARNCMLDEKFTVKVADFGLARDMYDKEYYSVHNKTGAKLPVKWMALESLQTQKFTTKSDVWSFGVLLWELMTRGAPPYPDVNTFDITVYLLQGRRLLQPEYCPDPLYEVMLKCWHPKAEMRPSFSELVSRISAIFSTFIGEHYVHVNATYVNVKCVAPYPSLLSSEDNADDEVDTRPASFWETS

CC(c1ccc2nccn2c1)n1nnc2ncc(-c3cnn(C)c3)nc21 (racemic) [Compound 331] was tested, and the IC50 was 1 to 100 nM.

Same assay, conditions: Poly E4Y substrate, 28° C. 45 min, read-out: IC50, inhibition of c-Met kinase activity

Compared with FC(F)(F)Cn1cc(-c2ccc3nnn(Cc4ccc5ncccc5c4)c3n2)cn1 [Compound 147], FC(F)(F)Cn1cc(-c2ccc3nnn(Cc4ccc5ncccc5n4)c3n2)cn1 [Compound 292] is higher in IC50: 1 to 100 nM for the first, 100 to 1000 nM for the second. The first is the more potent here.

Cc1coc(Nc2cnc3nnn(Cc4ccc5ncccc5c4)c3n2)n1 [Compound 199] and Cc1cc(Nc2cnc3nnn(Cc4ccc5ncccc5c4)c3n2)on1 [Compound 160] fall in the same range of IC50: 1 to 100 nM for the first, 1 to 100 nM for the second.

OCCn1cc(-c2cnc3nnn(Cc4cc5[nH]ncc5s4)c3n2)cn1 [Compound 13] and N#CCn1cc(-c2cnc3nnn(Cc4cc5[nH]ncc5s4)c3n2)cn1 [Compound 27] fall in the same range of IC50: 1 to 100 nM for the first, 1 to 100 nM for the second.

First: c1cc2sc(Cn3nnc4ncc(-c5cnn(C6CCOCC6)c5)nc43)cc2cn1 [Compound 22]
Second: Cn1cc(-c2cnc3nnn(Cc4c[nH]c5ncccc45)c3n2)cn1 [Compound 1, 1-((1H-Pyrrolo[2,3-b]pyridin-3-yl)methyl)-6-(1-methyl-1H-pyrazol-4-yl)-1H-[1,2,3]-triazolo[4,5-b]pyrazine]
The IC50 of the first is higher: 100 to 1000 nM for the first, 1 to 100 nM for the second. The second is the more potent here.

COCCn1cc(-c2cnc3nnn(Cc4ccn5nccc5c4)c3n2)cn1 [Compound 268] and COCCn1cc(-c2cnc3nnn(Cc4n[nH]c5ncccc45)c3n2)cn1 [Compound 15] fall in the same range of IC50: 1 to 100 nM for the first, 1 to 100 nM for the second.

First: Cn1cc(-c2cnc3nnn(Cc4ccc5ncc(CN6CCOCC6)n5c4)c3n2)cn1 [Compound 320]
Second: Cn1cc(-c2cnc3nnn(Cc4ccc5ncc(CO)n5c4)c3n2)cn1 [Compound 272]
The IC50 of the first is higher: 100 to 1000 nM for the first, 1 to 100 nM for the second. The second is the more potent here.

Cn1cc(-c2ccc3nnn(Cc4ccc5ncccc5c4F)c3n2)cn1 [Compound 129] and OCCn1cc(-c2ccc3nnn(Cc4cc5cccnc5cc4F)c3n2)cn1 [Compound 128] fall in the same range of IC50: 1 to 100 nM for the first, 1 to 100 nM for the second.

First: c1cnc2ccc(Cn3nnc4ccc(-n5cccn5)nc43)cc2c1 [Compound 80]
Second: c1cncc(Nc2ccc3nnn(Cc4ccc5ncccc5c4)c3n2)c1 [Compound 237]
The IC50 of the first is higher: 100 to 1000 nM for the first, 1 to 100 nM for the second.

CCn1cc(-c2ccc3nnn(Cc4ccc5nccn5c4)c3n2)cn1 [Compound 135] and FC(F)(F)Cn1cc(-c2ccc3nnn(Cc4ccc5nccn5c4)c3n2)cn1 [Compound 141] fall in the same range of IC50: 1 to 100 nM for the first, 1 to 100 nM for the second.

COCc1cnc2ccc([C@@H](C)n3nnc4ncc(-c5cnn(C)c5)nc43)cn12 [Compound 325] and CNCc1cnc2ccc(Cn3nnc4ncc(-c5cnn(C)c5)nc43)cn12 [Compound 327, N-methyl-1-(6-((6-(1-methyl-1H-pyrazol-4-yl)-1H-[1,2,3]triazolo[4,5-b]pyrazin-1-yl)methyl)imidazo[1,2-a]pyridin-3-yl)methanamine] fall in the same range of IC50: 1 to 100 nM for the first, 1 to 100 nM for the second.

First: Cc1cc(Nc2cnc3nnn(Cc4ccc5ncccc5c4)c3n2)ccn1 [Compound 163]
Second: CNc1cc(Nc2cnc3nnn(Cc4ccc5ncccc5c4)c3n2)ccn1 [Compound 231]
The IC50 of the first is lower: 1 to 100 nM for the first, 100 to 1000 nM for the second.

Cn1ccc(Nc2ccc3nnn(Cc4ccc5ncccc5c4)c3n2)n1 [Compound 189] and N#Cc1ccc(-c2ccc3nnn(Cc4ccc5ncccc5c4)c3n2)s1 [Compound 102] fall in the same range of IC50: 1 to 100 nM for the first, 1 to 100 nM for the second.

First: OCCn1cc(-c2ccc3nnn(Cc4n[nH]c5ncccc45)c3n2)cn1 [Compound 138]
Second: CCn1cc(-c2ccc3nnn(Cc4n[nH]c5ncccc45)c3n2)cn1 [Compound 137]
The IC50 of the first is higher: 100 to 1000 nM for the first, 1 to 100 nM for the second.

First: COCCOc1cccc(-c2ccc3nnn(Cc4ccc5ncccc5c4)c3n2)c1 [Compound 96]
Second: COCCOc1ccc(-c2ccc3nnn(Cc4ccc5ncccc5c4)c3n2)cc1 [Compound 97]
The IC50 of the first is higher: 100 to 1000 nM for the first, 1 to 100 nM for the second. The second is the more potent here.

Compared with CNC(=O)c1cncc(Nc2cnc3nnn(Cc4ccc5ncccc5c4)c3n2)c1 [Compound 192], CNC(=O)c1ccnc(Nc2cnc3nnn(Cc4ccc5ncccc5c4)c3n2)c1 [Compound 174] is higher in IC50: 1 to 100 nM for the first, 100 to 1000 nM for the second.

Compared with CN(C)Cc1ccc(-c2ccc3nnn(Cc4ccc5ncccc5c4)c3n2)s1 [Compound 105], c1cnc2ccc(Cn3nnc4ccc(-c5ccc(N6CCOCC6)nc5)nc43)cc2c1 [Compound 63] is lower in IC50: 100 to 1000 nM for the first, 1 to 100 nM for the second. The second is the more potent here.

First: C[C@H](c1ccc2ncccc2c1)n1nnc2ccc(-c3cnn(CCO)c3)nc21 [Compound 78]
Second: C[C@@H](c1ccc2ncccc2c1)n1nnc2ccc(-c3cnn(CCO)c3)nc21 [Compound 77]
The IC50 of the first is higher: 100 to 1000 nM for the first, 1 to 100 nM for the second. The second is the more potent here.

OCCn1cc(-c2cnc3nnn(Cc4ccn5ncc(CO)c5c4)c3n2)cn1 [Compound 313] and OCCn1cc(-c2cnc3nnn(Cc4ccc5ncsc5c4)c3n2)cn1 [Compound 12] fall in the same range of IC50: 1 to 100 nM for the first, 1 to 100 nM for the second.

COCCOc1ccnc(Nc2cnc3nnn(Cc4ccc5ncccc5c4)c3n2)c1 [Compound 185] and Cc1ccnc(Nc2cnc3nnn(Cc4ccc5ncccc5c4)c3n2)c1 [Compound 196] fall in the same range of IC50: 1 to 100 nM for the first, 1 to 100 nM for the second.

CN(c1ccnc(C#N)c1)c1cnc2nnn(Cc3ccc4ncccc4c3)c2n1 [Compound 239] and c1cnc2ccc(Cn3nnc4ncc(Oc5ccncc5)nc43)cc2c1 [Compound 250] fall in the same range of IC50: 1 to 100 nM for the first, 1 to 100 nM for the second.

Cc1cc(Nc2cnc3nnn(Cc4ccc5ncccc5c4)c3n2)no1 [Compound 200] and c1cnc2ccc(Cn3nnc4ncc(Nc5cc[nH]n5)nc43)cc2c1 [Compound 198] fall in the same range of IC50: 1 to 100 nM for the first, 1 to 100 nM for the second.

c1cnc2ccc(Cn3nnc4ncc(Sc5ccncc5)nc43)cc2c1 [Compound 248] and c1cncc(Nc2cnc3nnn(Cc4ccc5ncccc5c4)c3n2)c1 [Compound 212] fall in the same range of IC50: 1 to 100 nM for the first, 1 to 100 nM for the second.

Fc1ccc(-c2cnc3nnn(Cc4ccn5nccc5c4)c3n2)cc1 [Compound 303] and c1cnc2ccc(Cn3nnc4ncc(Nc5ccsc5)nc43)cc2c1 [Compound 161] fall in the same range of IC50: 1 to 100 nM for the first, 1 to 100 nM for the second.

Cn1cc(-c2ccc3nnn(Cc4ccc5ncsc5n4)c3n2)cn1 [Compound 142] and CCn1cc(-c2cnc3nnn(Cc4csc5ncccc45)c3n2)cn1 [Compound 41] fall in the same range of IC50: 100 to 1000 nM for the first, 100 to 1000 nM for the second.

OC1COCC1Nc1cc(Nc2cnc3nnn(Cc4ccc5ncccc5c4)c3n2)ccn1 (stereo not shown) [Compound 228] and Cc1cccnc1Nc1cnc2nnn(Cc3ccc4ncccc4c3)c2n1 [Compound 188] fall in the same range of IC50: 1 to 100 nM for the first, 1 to 100 nM for the second.

For Nc1cccc(Oc2cnc3nnn(Cc4ccc5ncccc5c4)c3n2)n1 [Compound 259], the IC50 was 1 to 100 nM.
